From US20240209028A1, “CNP COMPOUNDS” (priority 2022, published 2024)
≈ marks a conversion by molar mass, not a printed value. Starred links: 1 amine or outer side, 2 acyl side, 3 side chain; linkers in the order of their positions; H or OH if unused. Positions of bridges follow the written chain, without caps; N, C: chain ends. Residues, ends and D or L forms follow the SMILES beside them. *: point of attachment. C18 diacid = O=C(O)CCCCCCCCCCCCCCCCC(=O)*; γGlu = O=C(O)[C@H](CCC(=O)[*:2])N[*:1]

How the values were obtained:
[1] = target: T1, human natriuretic peptide receptor 2 (hNPR2) (Homo sapiens, UniProt P20594); experiment: In vitro hNPR2 activity assay (cGMP GloSensor reporter, HEK293); type: cell-based
T1 construct: expressed in transfected cells; host or cells: HEK293 (ATCC CRL-1573), clone 35, co-transfected with pGloSensor-42F
T1 sequence (P20594 23-1047): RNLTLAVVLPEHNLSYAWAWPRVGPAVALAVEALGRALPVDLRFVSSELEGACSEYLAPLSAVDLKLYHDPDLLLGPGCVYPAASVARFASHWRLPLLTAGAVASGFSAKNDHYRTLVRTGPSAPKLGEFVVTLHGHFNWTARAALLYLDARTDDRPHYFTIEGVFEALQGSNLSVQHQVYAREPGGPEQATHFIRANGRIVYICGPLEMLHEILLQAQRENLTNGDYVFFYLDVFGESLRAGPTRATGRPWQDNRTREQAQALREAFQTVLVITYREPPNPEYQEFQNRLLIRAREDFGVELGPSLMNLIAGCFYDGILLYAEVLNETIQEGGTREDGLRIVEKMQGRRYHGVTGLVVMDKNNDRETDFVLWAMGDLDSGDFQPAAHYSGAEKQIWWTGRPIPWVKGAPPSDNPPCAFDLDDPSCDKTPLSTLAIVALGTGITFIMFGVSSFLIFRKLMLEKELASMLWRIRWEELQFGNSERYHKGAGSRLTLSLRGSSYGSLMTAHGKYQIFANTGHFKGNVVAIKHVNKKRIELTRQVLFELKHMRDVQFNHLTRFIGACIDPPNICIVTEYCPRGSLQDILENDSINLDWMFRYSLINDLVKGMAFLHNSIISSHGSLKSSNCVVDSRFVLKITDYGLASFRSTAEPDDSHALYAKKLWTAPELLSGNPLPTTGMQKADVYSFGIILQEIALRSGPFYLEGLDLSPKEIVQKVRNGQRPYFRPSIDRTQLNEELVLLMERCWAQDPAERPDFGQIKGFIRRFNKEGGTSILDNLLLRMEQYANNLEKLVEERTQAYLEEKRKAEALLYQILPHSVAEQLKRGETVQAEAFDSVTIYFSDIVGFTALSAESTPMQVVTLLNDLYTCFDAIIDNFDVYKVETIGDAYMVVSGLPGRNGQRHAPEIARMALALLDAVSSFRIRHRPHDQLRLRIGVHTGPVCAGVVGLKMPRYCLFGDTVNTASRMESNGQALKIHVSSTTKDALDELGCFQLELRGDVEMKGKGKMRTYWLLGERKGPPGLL
How it was run: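 Potency is the EC50 from a four-parameter logistic fit, also expressed relative to the in-plate CNP22 control (×100), with at least two replicates. Compounds (ten concentrations, […], HSA-free diluent with 1% OVA, 0.01% Tween20) were incubated 30 min at 37 °C on HEK293 cells co-expressing hNPR2 and a GloSensor cGMP luciferase. Luminescence detected with Bright-Glo.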

[2] = Solubility of CNP compounds at pH 4.0 and pH 6.5; type: physicochemical; settings: pH 4
How it was run: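 Freeze-dried peptide was brought to a nominal ≥4000-5000 nmol/mL in 5 mM sodium acetate, 250 mM glycerol (pH 4.0) or in 8 mM sodium phosphate, 23 mg/mL glycerol (pH 6.5 via NaOH titration). Samples were equilibrated at room temperature overnight if undissolved, and supernatant concentration was measured by CAD.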

For `CC[C@H](C)[C@@H]1NC(=O)[C@H](CCCNC(=N)N)NC(=O)[C@H](CCC(=O)O)NC(=O)[C@H](CC(C)C)NC(=O)[C@@H]2CCCN2C(=O)[C@H](CC(C)C)NC(=O)CNC(=O)[C@H](Cc2ccccc2)NC(=O)[C@@H](NC(=O)CNC(=O)[C@H](CO)NC(=O)[C@H](CO)NC(=O)[C@H](CC(C)C)NC(=O)CNC(=O)[C@H](CCCCN)NC(=O)[C@H](CCCCN)NC(=O)[C@H](CCC(N)=O)NC(=O)[C@H](C)NC(=O)CNC(=O)[C@H](CCCCN)NC(=O)[C@H](Cc2ccc(O)cc2)NC(=O)[C@H](CCCCN)NC(=O)[C@H](CCCNC(=N)N)NC(=O)[C@H](C)NC(=O)[C@H](CCC(N)=O)NC(=O)[C@@H]2CCCN2C(=O)[C@H](Cc2c[nH]cn2)NC(=O)[C@H](CCC(=O)O)NC(=O)[C@H](CCC(N)=O)NC(=O)CC[C@H](NC(=O)CC[C@H](NC(=O)CC[C@H](NC(=O)CC[C@H](NC(=O)CCCCCCCCCCCCCCCCC(=O)O)C(=O)O)C(=O)O)C(=O)O)C(=O)O)CSSC[C@@H](C(=O)O)NC(=O)CNC(=O)[C@H](CC(C)C)NC(=O)CNC(=O)[C@H](CO)NC(=O)[C@H](CC(C)C)NC(=O)[C@H](CO)NC(=O)CNC1=O` [compound 9483] ({C18 diacid-γGlu-γGlu-γGlu-γGlu}-QEHPQARKYKGAQKKGLSSGCFGLPLERIGSLSGLGC-OH; disulfide 21-37), the EC50 ([1]; 0% HSA, HEK293-hNPR2/GloSensor cells) was 0.3 nM, the “hNPR2 0% HSA. [EC50% rel CNP]” value ([1]; potency relative to CNP22 (0065)) was 10.2% and the solubility [2] was 4.96 mM (≈ 23.4 mg/mL).
